Reference: patent US20250170267A1, “ANTIBODY-DRUG CONJUGATE PRECURSOR AND INTERMEDIATE FOR SYNTHESIS THEREOF” (UBE Corporation, priority 2022, published 2025)
Where two headings read alike, the source gives them in different places. Numbered stars: 1 amine (or outer) side, 2 acyl side, 3 side chain; on linkers, the order of the positions; unused ones are H or OH. Square brackets hold non-standard residues; d marks the D form. Peptide text beside a SMILES is read from it. * marks the point of attachment. X7 = C[C@@H](N*)[C@@H](OC(=O)OCc1cn(C2OC(C(=O)O)C(O)C(O)C2O)nn1)c1ccccc1; Dolaproine = CO[C@@H]([C@@H]1CCCN1)[C@@H](C)C(=O)O; X5 = C[C@@H](N[*:1])[C@@H](OC(=O)[*:2])c1ccccc1; X10 = COCCOC(=O)O[C@@H](c1ccccc1)[C@@H](C)N*; Dil = CC[C@H](C)[C@H](NC)[C@@H](CC(=O)O)OC; X3 = C[C@@H](N*)[C@@H](OP(=O)(O)O)c1ccccc1; X6 = O=C(O)C1OC(n2cc(CN*)nn2)C(O)C(O)C1O; NMeV = CN[C@H](C(=O)O)C(C)C; X8 = c1[nH]nnc1CN*

Target: T1, porcine tubulin (Sus scrofa, UniProt P02550+P02554)
T1 construct: purchased Cytoskeleton, Inc. BK011P
Test: Tubulin polymerization inhibition test
Assay type: biochemical
Description: For measuring the tubulin polymerization inhibitory action, Tubulin Polymerization Assay Kit (manufactured by Cytoskeleton, Inc., BK011P) was used. A PIPES buffer containing porcine tubulin, GTP, MgCl2, EGTA, Glycerol, and a fluorescent reporter was prepared under ice-cooling as a reaction solution. The reaction solution was ice-cooled until it was used. A test compound solution was prepared by an aqueous solution containing 1.5% DMSO, and added to a 96 well plate (manufactured by Corning Inc., 3686) at 5 μL/well. The reaction solution was added thereto at 50 μL/well, the plate was placed in a microplate reader (FlexStation 3, manufactured by Molecular Device, LLC) in which the internal temperature was set to 37° C. in advance, and the fluorescence intensity measurement (excitation wavelength: 360 nm, detection wavelength: 420 nm) of each well was started. The fluorescence intensity was measured once every minute, and the measurement was continued for 60 minutes.
The tubulin polymerization inhibition rate (%) was calculated by the following equation.
[formula] • a: average amount of fluorescence intensity increase in vehicle-treated well (n=2) • b: average amount of fluorescence intensity increase in test compound-treated well (n=2)
Amount of fluorescence intensity increase: (average fluorescence intensity after 51 to 60 minutes from measurement start)−(average fluorescence intensity after 1 to 6 minutes from measurement start)

[1] = porcine tubulin, 37° C., fluorescence over 60 minutes, read-out: IC50 value (tubulin polymerization inhibition)

T1 sequence (P02550 whole entry): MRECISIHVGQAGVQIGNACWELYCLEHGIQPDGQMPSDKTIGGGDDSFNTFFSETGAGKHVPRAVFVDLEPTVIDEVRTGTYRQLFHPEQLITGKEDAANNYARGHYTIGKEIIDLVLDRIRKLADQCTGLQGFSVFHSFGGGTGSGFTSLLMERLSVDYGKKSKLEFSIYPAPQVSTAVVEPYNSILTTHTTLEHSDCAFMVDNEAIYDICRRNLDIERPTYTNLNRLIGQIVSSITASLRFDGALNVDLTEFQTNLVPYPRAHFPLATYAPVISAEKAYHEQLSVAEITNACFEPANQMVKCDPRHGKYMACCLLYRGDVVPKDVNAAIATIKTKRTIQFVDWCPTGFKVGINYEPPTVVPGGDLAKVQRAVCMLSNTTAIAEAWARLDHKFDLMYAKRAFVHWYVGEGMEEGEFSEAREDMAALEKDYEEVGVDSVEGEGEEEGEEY
T1 sequence (P02554 whole entry): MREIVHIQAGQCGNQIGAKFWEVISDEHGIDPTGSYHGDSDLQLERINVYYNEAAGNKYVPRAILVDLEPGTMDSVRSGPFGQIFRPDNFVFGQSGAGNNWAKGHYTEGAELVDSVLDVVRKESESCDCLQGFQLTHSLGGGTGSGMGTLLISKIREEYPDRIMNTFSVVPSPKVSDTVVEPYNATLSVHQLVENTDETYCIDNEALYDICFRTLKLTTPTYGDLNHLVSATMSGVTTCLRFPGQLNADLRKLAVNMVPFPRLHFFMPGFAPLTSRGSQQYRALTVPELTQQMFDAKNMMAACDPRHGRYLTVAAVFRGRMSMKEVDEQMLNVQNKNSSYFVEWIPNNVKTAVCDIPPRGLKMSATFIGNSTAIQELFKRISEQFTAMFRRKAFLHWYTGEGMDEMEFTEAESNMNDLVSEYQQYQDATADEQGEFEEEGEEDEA

SMILES	IC50 [1] [µM]	IC50 [µM]
CC[C@H](C)[C@@H]([C@@H](CC(=O)N1CCC[C@H]1[C@H](OC)[C@@H](C)C(=O)N[C@H](C)[C@@H](OC(=O)OCCOC)c1ccccc1)OC)N(C)C(=O)[C@@H](NC(=O)[C@@H](NC)C(C)C)C(C)C [Example U-012] (H-[NMeV]V[Dil][Dolaproine]-X10)	≤ 3	
CC[C@H](C)[C@@H]([C@@H](CC(=O)N1CCC[C@H]1[C@H](OC)[C@@H](C)C(=O)N[C@H](C)[C@@H](O)c1ccccc1)OC)N(C)C(=O)[C@@H](NC(=O)[C@H](C(C)C)N(C)CCONC)C(C)C [Example U-013]	≤ 3	
CC[C@H](C)[C@@H]([C@@H](CC(=O)N1CCC[C@H]1[C@H](OC)[C@@H](C)C(=O)N[C@H](C)[C@@H](OC(=O)NCCOCCOCCOCCOCCOCCOCCOCCOCCOCCOCCOCCOC)c1ccccc1)OC)N(C)C(=O)[C@@H](NC(=O)[C@@H](NC)C(C)C)C(C)C [Example U-015]	≤ 3	
CC[C@H](C)[C@@H]([C@@H](CC(=O)N1CCC[C@H]1[C@H](OC)[C@@H](C)C(=O)N[C@H](C)[C@@H](O)c1ccccc1)OC)N(C)C(=O)[C@@H](NC(=O)[C@H](C(C)C)N(C)CCc1ccc(N)cc1F)C(C)C [Example U-016]	≤ 3	
CC[C@H](C)[C@@H]([C@@H](CC(=O)N1CCC[C@H]1[C@H](OC)[C@@H](C)C(=O)N[C@H](C)[C@@H](O)c1ccccc1)OC)N(C)C(=O)[C@@H](NC(=O)[C@H](C(C)C)N(C)CCCC(=O)N[C@H]1CCc2c(C)c(F)cc3nc4c(c1c23)Cn1c-4cc2c(c1=O)COC(=O)[C@]2(O)CC)C(C)C [Example U-017]		≤ 3
CC[C@H](C)[C@@H]([C@@H](CC(=O)N1CCC[C@H]1[C@H](OC)[C@@H](C)C(=O)N[C@H](C)[C@@H](OC(=O)NCc1cn(C2OC(C(=O)O)C(O)C(O)C2O)nn1)c1ccccc1)OC)N(C)C(=O)[C@@H](NC(=O)[C@@H](NC)C(C)C)C(C)C (stereo partly shown) [Example U-019] (H-[NMeV]V[Dil][Dolaproine][X5]-X6)	≤ 3	
CC[C@H](C)[C@@H]([C@@H](CC(=O)N1CCC[C@H]1[C@H](OC)[C@@H](C)C(=O)N[C@H](C)[C@@H](OC(=O)OCc1cn(C2OC(C(=O)O)C(O)C(O)C2O)nn1)c1ccccc1)OC)N(C)C(=O)[C@@H](NC(=O)[C@@H](NC)C(C)C)C(C)C (stereo partly shown) [Example U-020] (H-[NMeV]V[Dil][Dolaproine]-X7)	≤ 3	
CC[C@H](C)[C@@H]([C@@H](CC(=O)N1CCC[C@H]1[C@H](OC)[C@@H](C)C(=O)N[C@H](C)[C@@H](OC(=O)NCc1c[nH]nn1)c1ccccc1)OC)N(C)C(=O)[C@@H](NC(=O)[C@@H](NC)C(C)C)C(C)C [Example U-021] (H-[NMeV]V[Dil][Dolaproine][X5]-X8)	≤ 3	
CC[C@H](C)[C@@H]([C@@H](CC(=O)N1CCC[C@H]1[C@H](OC)[C@@H](C)C(=O)N[C@H](C)[C@@H](OP(=O)(O)O)c1ccccc1)OC)N(C)C(=O)[C@@H](NC(=O)[C@@H](NC)C(C)C)C(C)C [Example U-030] (H-[NMeV]V[Dil][Dolaproine]-X3)	≤ 3	
CC[C@H](C)[C@@H]([C@@H](CC(=O)N1CCC[C@H]1[C@H](OC)[C@@H](C)C(=O)N[C@H](C)[C@@H](OP(=O)(O)O)c1ccccc1)OC)N(C)C(=O)[C@@H](NC(=O)[C@H](C(C)C)N(C)C)C(C)C [Example U-031]	≤ 3	
